Like-named read-outs stand apart in the source and are kept apart here.
Tested on: NLRP3
Experiment: IL-1β secretion assay in PMA-differentiated, LPS/nigericin-stimulated THP-1 cells (384-well, ELISA read-out)
Format: cell-based, human
Conditions: Homo sapiens
In short: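 Secreted IL-1β quantified by capture ELISA from supernatants of PMA-differentiated THP-1 cells (30K per well). Sequence: LPS 25 ng/mL priming 2 h, compound 1 h, nigericin 2 h; dose-responses normalized between high (LPS plus 5 μM nigericin) and low (LPS alone) controls.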

[1] = THP-1, IL-1β secretion, PMA-differentiated THP-1 cells, LPS then nigericin stimulation, ELISA read at 450 nm, read-out: Activity
[2] = THP-1, Table 4, IL-1β secretion, LPS/nigericin-stimulated THP-1 cells, read-out: IC50

SMILES	IC50 [1] [µM]	IC50 [2] [µM]
O=C(CN1CC2(CC2)c2cc(Br)ccc2C1=O)Nc1ccccc1OC(F)F [Example 113, 2-(6-bromo-1-oxospiro[3H-isoquinoline-4,1′-cyclopropane]-2-yl)-N-[2-(difluoromethoxy)phenyl]acetamide]	< 10	4.18
Cc1cccc(NC(=O)CN2CC3(CC3)c3cc(Br)ccc3C2=O)n1 [Example 114, 2-(6-bromo-1-oxospiro[3H-isoquinoline-4,1′-cyclopropane]-2-yl)-N-(6-methylpyridin-2-yl)acetamide]	< 10	1.99
Cc1noc(NC(=O)CN2CC3(CC3)c3cc(Br)ccc3C2=O)c1C [Example 115, 2-(6-bromo-1-oxospiro[3H-isoquinoline-4,1′-cyclopropane]-2-yl)-N-(3,4-dimethyl-1,2-oxazol-5-yl)acetamide]	> 15	15.4
O=C(CN1CC2(CC2)c2cc(Br)ccc2C1=O)Nc1cccc2nccn12 [Example 116, 2-(6-bromo-1-oxospiro[3H-isoquinoline-4,1′-cyclopropane]-2-yl)-N-imidazo[1,2-a]pyridin-5-ylacetamide]	< 10	4.16
O=C(CN1CC2(CC2)c2cc(Br)ccc2C1=O)NCC1COC1 [Example 117, 2-(6-bromo-1-oxospiro[3H-isoquinoline-4,1′-cyclopropane]-2-yl)-N-(oxetan-3-ylmethyl)acetamide]	> 15	19.8
O=C(CN1CC2(CC2)c2cc(Br)ccc2C1=O)NC1CS(=O)(=O)C1 [Example 118, 2-(6-bromo-1-oxospiro[3H-isoquinoline-4,1′-cyclopropane]-2-yl)-N-(1,1-dioxothietan-3-yl)acetamide]	> 15	22.4
O=C(CN1CC2(CC2)c2cc(Br)ccc2C1=O)NCc1ncco1 [Example 119, 2-(6-bromo-1-oxospiro[3H-isoquinoline-4,1′-cyclopropane]-2-yl)-N-(1,3-oxazol-2-ylmethyl)acetamide]	> 15	30.1
Cn1ccnc1CNC(=O)CN1CC2(CC2)c2cc(Br)ccc2C1=O [Example 120, 2-(6-bromo-1-oxospiro[3H-isoquinoline-4,1′-cyclopropane]-2-yl)-N-[(1-methylimidazol-2-yl)methyl]acetamide]	> 15	24.8
O=C(CN1CC2(CC2)c2cc(Br)ccc2C1=O)NCCn1ccnc1 [Example 121, 2-(6-bromo-1-oxospiro[3H-isoquinoline-4,1′-cyclopropane]-2-yl)-N-(2-imidazol-1-ylethyl)acetamide]	10 to 15	12.1
O=C(CN1CC2(CC2)c2cc(Br)ccc2C1=O)NCc1ccncc1 [Example 122, 2-(6-bromo-1-oxospiro[3H-isoquinoline-4,1′-cyclopropane]-2-yl)-N-(pyridin-4-ylmethyl)acetamide]	> 15	29.9
CN(Cc1cnn(C)c1)C(=O)CN1CC2(CC2)c2cc(Br)ccc2C1=O [Example 123, 2-(6-bromo-1-oxospiro[3H-isoquinoline-4,1′-cyclopropane]-2-yl)-N-methyl-N-[(1-methylpyrazol-4-yl)methyl]acetamide]	> 15	34.9
Cn1nccc1CNC(=O)CN1CC2(CC2)c2cc(Br)ccc2C1=O [Example 124, 2-(6-bromo-1-oxospiro[3H-isoquinoline-4,1′-cyclopropane]-2-yl)-N-[(2-methylpyrazol-3-yl)methyl]acetamide]	> 15	27.7
O=C(CN1CC2(CC2)c2cc(Br)ccc2C1=O)N1Cc2cccnc2C1 [Example 125, 6-bromo-2-[2-(5,7-dihydropyrrolo[3,4-b]pyridin-6-yl)-2-oxoethyl]spiro[3H-isoquinoline-4,1′-cyclopropane]-1-one]	> 15	26.7
Cn1nc(C2CC2)cc1NC(=O)CN1CC2(CC2)c2cc(Br)ccc2C1=O [Example 126, 2-(6-bromo-1-oxospiro[3H-isoquinoline-4,1′-cyclopropane]-2-yl)-N-(5-cyclopropyl-2-methylpyrazol-3-yl)acetamide]	> 15	15.4
O=C(CN1CC2(CC2)c2cc(Br)ccc2C1=O)Nc1ccccc1 [Example 127, 2-(6-bromo-1-oxospiro[3H-isoquinoline-4,1′-cyclopropane]-2-yl)-N-phenylacetamide]	< 10	1.67
O=C(CN1CC2(CC2)c2cc(Br)ccc2C1=O)NCCN1CCOCC1 [Example 128, 2-(6-bromo-1-oxospiro[3H-isoquinoline-4,1′-cyclopropane]-2-yl)-N-(2-morpholin-4-ylethyl)acetamide]	10 to 15	12
O=C(CN1CC2(CC2)c2cc(Br)ccc2C1=O)NC1Cc2ccccc2C1 [Example 129, 2-(6-bromo-1-oxospiro[3H-isoquinoline-4,1′-cyclopropane]-2-yl)-N-(2,3-dihydro-1H-inden-2-yl)acetamide]	< 10	7.2

SMILES	IC50 [1] [µM]	IC50 [2] [µM]
O=C(CN1CC2(CC2)c2cc(Br)ccc2C1=O)Nc1ccc2ncccc2c1 [Example 130, 2-(6-bromo-1-oxospiro[3H-isoquinoline-4,1′-cyclopropane]-2-yl)-N-quinolin-6-ylacetamide]	< 10	1.23
O=C(CN1CC2(CC2)c2cc(Br)ccc2C1=O)Nc1cnc2ccccc2c1 [Example 131, 2-(6-bromo-1-oxospiro[3H-isoquinoline-4,1′-cyclopropane]-2-yl)-N-quinolin-3-ylacetamide]	< 10	7.7
O=C(CN1CC2(CC2)c2cc(Br)ccc2C1=O)NCC(O)c1ccc(F)cc1 (stereo not drawn) [Example 132, 2-(6-bromo-1-oxospiro[3H-isoquinoline-4,1′-cyclopropane]-2-yl)-N-[2-(4-fluorophenyl)-2-hydroxyethyl]acetamide]	> 15	29.7
O=C(CN1CC2(CC2)c2cc(Br)ccc2C1=O)NCCC(F)(F)F [Example 133, 2-(6-bromo-1-oxospiro[3H-isoquinoline-4,1′-cyclopropane]-2-yl)-N-(3,3,3-trifluoropropyl)acetamide]	< 10	9.24
CC(C)(C#N)NC(=O)CN1CC2(CC2)c2cc(Br)ccc2C1=O [Example 134, 2-(6-bromo-1-oxospiro[3H-isoquinoline-4,1′-cyclopropane]-2-yl)-N-(2-cyanopropan-2-yl)acetamide]	> 15	
O=C(CN1CC2(CC2)c2cc(Br)ccc2C1=O)Nc1ccc2c(c1)CCO2 [Example 135, 2-(6-bromo-1-oxospiro[3H-isoquinoline-4,1′-cyclopropane]-2-yl)-N-(2,3-dihydro-1-benzofuran-5-yl)acetamide]	< 10	1.22
O=C(CN1CC2(CC2)c2cc(Br)ccc2C1=O)Nc1ccc2cnccc2c1 [Example 136, 2-(6-bromo-1-oxospiro[3H-isoquinoline-4,1′-cyclopropane]-2-yl)-N-isoquinolin-6-ylacetamide]	< 10	
CS(=O)(=O)NCCNC(=O)CN1CC2(CC2)c2cc(Br)ccc2C1=O [Example 137, 2-(6-bromo-1-oxospiro[3H-isoquinoline-4,1′-cyclopropane]-2-yl)-N-[2-(methanesulfonamido)ethyl]acetamide]	> 15	21.9
COCCn1cc(NC(=O)CN2CC3(CC3)c3cc(Br)ccc3C2=O)cn1 [Example 138, 2-(6-bromo-1-oxospiro[3H-isoquinoline-4,1′-cyclopropane]-2-yl)-N-[1-(2-methoxyethyl)pyrazol-4-yl]acetamide]	> 15	20.5
CS(=O)(=O)CCNC(=O)CN1CC2(CC2)c2cc(Br)ccc2C1=O [Example 139, 2-(6-bromo-1-oxospiro[3H-isoquinoline-4,1′-cyclopropane]-2-yl)-N-(2-methylsulfonylethyl)acetamide]	> 15	26.4
O=C(CN1CC2(CC2)c2cc(Br)ccc2C1=O)Nc1ccc2ncsc2c1 [Example 140, N-(1,3-benzothiazol-6-yl)-2-(6-bromo-1-oxospiro[3H-isoquinoline-4,1′-cyclopropane]-2-yl)acetamide]	< 10	0.889
Cn1ncc2cc(NC(=O)CN3CC4(CC4)c4cc(Br)ccc4C3=O)ccc21 [Example 141, 2-(6-bromo-1-oxospiro[3H-isoquinoline-4,1′-cyclopropane]-2-yl)-N-(1-methylindazol-5-yl)acetamide]	< 10	1.23
Cc1nc(-c2cccc(NC(=O)CN3CC4(CC4)c4cc(Br)ccc4C3=O)c2)cs1 [Example 142, 2-(6-bromo-1-oxospiro[3H-isoquinoline-4,1′-cyclopropane]-2-yl)-N-[3-(2-methyl-1,3-thiazol-4-yl)phenyl]acetamide]	< 10	1.78
Cc1nc2ccc(NC(=O)CN3CC4(CC4)c4cc(Br)ccc4C3=O)cc2s1 [Example 143, 2-(6-bromo-1-oxospiro[3H-isoquinoline-4,1′-cyclopropane]-2-yl)-N-(2-methyl-1,3-benzothiazol-6-yl)acetamide]	< 10	1.41
Cc1cc(NC(=O)CN2CC3(CC3)c3cc(Br)ccc3C2=O)n(C)n1 [Example 144, 2-(6-bromo-1-oxospiro[3H-isoquinoline-4,1′-cyclopropane]-2-yl)-N-(2,5-dimethylpyrazol-3-yl)acetamide]	< 10	3.91
O=C(CN1CC2(CC2)c2cc(Br)ccc2C1=O)Nc1nc2ccccc2[nH]1 [Example 145, N-(1H-benzimidazol-2-yl)-2-(6-bromo-1-oxospiro[3H-isoquinoline-4,1′-cyclopropane]-2-yl)acetamide]	< 10	2.66
O=C(CN1CC2(CC2)c2cc(Br)ccc2C1=O)Nc1ccc2scnc2c1 [Example 146, N-(1,3-benzothiazol-5-yl)-2-(6-bromo-1-oxospiro[3H-isoquinoline-4,1′-cyclopropane]-2-yl)acetamide]	< 10	2.74

From patent publication US20230416205A1, “COMPOUNDS, COMPOSITIONS, AND METHODS” (Denali Therapeutics Inc, priority 2020, published 2023)
